Tested on: not given
Details: not given

Row | melting point | Structure (SMILES)
1 | 162 to 165 °C | Cc1cc(Cc2cc(C(F)(F)F)cc(C(F)(F)F)c2)ccc1NC(=O)c1cccc(Cl)c1C(=O)N[C@@H](C)C[S+](C)[O-] (stereo partly shown)
2 | 155 to 158 °C | Cc1cc(Cc2cc(C(F)(F)F)cc(C(F)(F)F)c2)ccc1NC(=O)c1cccc(Cl)c1C(=O)N[C@@H](C)CS(C)(=O)=O
3 | 85 to 94 °C | CSC[C@H](C)NC(=O)c1c(C)cccc1C(=O)Nc1ccc(Cc2cc(C(F)(F)F)cc(C(F)(F)F)c2)cc1C

Second part, the compound before the results:

Row | Structure (SMILES) | melting point
4 | CSC[C@H](C)NC(=O)c1c(Cl)cccc1C(=O)Nc1ccc(Cc2cc(C(F)(F)F)cc(C(F)(F)F)c2)nc1C | 73 to 79 °C
5 | CSC[C@H](C)NC(=O)c1c(Cl)cccc1C(=O)Nc1ccc(Cc2cc(C(F)(F)F)cc(C(F)(F)F)c2)cc1C | 57 to 62 °C

Tested on: organophosphorous- and carbamate-resistant Myzus persicae
Details: 100 ppm; 7 days after application; 28° C. greenhouse

Row | Structure (SMILES) | insect mortality
6 | CSC[C@H](C)NC(=O)c1c(Cl)cccc1C(=O)Nc1ccc(Cc2cc(C(F)(F)F)cc(C(F)(F)F)c2)cc1C [Compound No. 19] | 100%
7 | CSC[C@H](C)NC(=O)c1c(Cl)cccc1C(=O)Nc1ccc(Cc2cc(Br)cc(Br)c2)cc1C [compound 152] | 100%
